Reference: ChEMBL document CHEMBL1152560, “Substituted 2-arylbenzothiazoles as kinase inhibitors: hit-to-lead optimization” (Bioorg Med Chem, 2009)

Legend:
[1] = biological target: Death-associated protein kinase 3 (Homo sapiens) (UniProt O43293); experiment: Residual activity of DAPK3 at 10 uM by microplate scintillation counting
[2] = biological target: Cyclin-dependent kinase 5/CDK5 activator 1 (Homo sapiens) (UniProt Q00535+Q15078); experiment: Residual activity of CDK5/p25NCK at 0.1 uM by microplate scintillation counting; type: protein-complex assay
Chain of Cyclin-dependent kinase 5/CDK5 activator 1 (Homo sapiens) (Q00535 whole entry): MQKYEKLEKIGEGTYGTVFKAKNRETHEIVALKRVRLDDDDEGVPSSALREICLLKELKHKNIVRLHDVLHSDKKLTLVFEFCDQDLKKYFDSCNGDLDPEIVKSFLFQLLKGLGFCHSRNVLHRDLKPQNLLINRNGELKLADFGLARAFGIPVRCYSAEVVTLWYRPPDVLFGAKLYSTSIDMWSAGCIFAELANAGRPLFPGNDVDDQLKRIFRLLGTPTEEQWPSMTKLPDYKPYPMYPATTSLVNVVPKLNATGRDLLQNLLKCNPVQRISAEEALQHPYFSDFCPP
Chain of Cyclin-dependent kinase 5/CDK5 activator 1 (Homo sapiens) (Q15078 99-307 partner limits assumed): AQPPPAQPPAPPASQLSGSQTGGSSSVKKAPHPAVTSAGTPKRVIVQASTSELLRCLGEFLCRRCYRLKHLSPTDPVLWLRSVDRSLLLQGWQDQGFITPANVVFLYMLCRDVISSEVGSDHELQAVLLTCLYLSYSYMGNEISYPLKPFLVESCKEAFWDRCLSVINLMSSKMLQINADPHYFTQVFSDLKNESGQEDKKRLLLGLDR

[3] = biological target: Eukaryotic translation initiation factor 2-alpha kinase 1 (Homo sapiens) (UniProt Q9BQI3); experiment: Residual activity of HRI at 1 uM by microplate scintillation counting
Chain of Eukaryotic translation initiation factor 2-alpha kinase 1 (Homo sapiens) (Q9BQI3 whole entry): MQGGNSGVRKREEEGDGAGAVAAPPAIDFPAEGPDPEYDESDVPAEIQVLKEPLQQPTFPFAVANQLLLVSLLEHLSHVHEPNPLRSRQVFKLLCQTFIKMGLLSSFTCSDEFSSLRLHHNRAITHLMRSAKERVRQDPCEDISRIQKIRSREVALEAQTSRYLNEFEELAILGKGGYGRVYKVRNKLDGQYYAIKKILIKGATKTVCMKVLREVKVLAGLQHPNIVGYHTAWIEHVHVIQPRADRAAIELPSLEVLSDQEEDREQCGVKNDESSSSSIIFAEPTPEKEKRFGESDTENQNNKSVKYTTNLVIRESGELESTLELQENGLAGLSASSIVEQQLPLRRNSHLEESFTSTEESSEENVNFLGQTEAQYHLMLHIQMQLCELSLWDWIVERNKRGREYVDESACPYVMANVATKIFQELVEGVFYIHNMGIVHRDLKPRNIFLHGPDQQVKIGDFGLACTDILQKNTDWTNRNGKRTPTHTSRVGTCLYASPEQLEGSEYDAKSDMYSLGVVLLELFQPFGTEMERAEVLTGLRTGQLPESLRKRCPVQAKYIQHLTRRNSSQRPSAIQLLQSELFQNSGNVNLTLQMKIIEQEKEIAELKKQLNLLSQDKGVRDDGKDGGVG

[4] = biological target: Cyclin-dependent kinase 2/cyclin E1 (Homo sapiens) (UniProt P24864+P24941); experiment: Residual activity of CDK2/Cyclin E at 1 uM by microplate scintillation counting; type: protein-complex assay
[5] = biological target: T1, Serine/threonine-protein kinase Sgk3 (Homo sapiens) (UniProt Q96BR1); experiment: Residual activity of SGK3 at 0.1 uM by microplate scintillation counting
T1 sequence (whole entry): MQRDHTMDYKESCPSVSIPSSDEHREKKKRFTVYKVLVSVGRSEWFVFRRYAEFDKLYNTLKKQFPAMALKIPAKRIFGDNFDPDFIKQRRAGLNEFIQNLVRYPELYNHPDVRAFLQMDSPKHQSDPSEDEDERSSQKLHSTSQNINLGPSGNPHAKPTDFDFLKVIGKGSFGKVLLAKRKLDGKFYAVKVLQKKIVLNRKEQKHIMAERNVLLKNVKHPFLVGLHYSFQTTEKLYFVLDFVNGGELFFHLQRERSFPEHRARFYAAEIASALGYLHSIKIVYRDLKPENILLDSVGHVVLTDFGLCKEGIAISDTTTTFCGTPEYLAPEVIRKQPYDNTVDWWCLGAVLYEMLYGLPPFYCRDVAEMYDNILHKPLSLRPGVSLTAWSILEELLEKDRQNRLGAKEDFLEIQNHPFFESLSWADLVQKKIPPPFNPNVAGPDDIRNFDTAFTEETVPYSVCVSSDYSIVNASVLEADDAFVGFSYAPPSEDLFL

[6] = biological target: T2, Serine/threonine-protein kinase Nek2 (Homo sapiens) (UniProt P51955); experiment: Residual activity of NEK2 at 0.1 uM by microplate scintillation counting
T2 sequence (whole entry): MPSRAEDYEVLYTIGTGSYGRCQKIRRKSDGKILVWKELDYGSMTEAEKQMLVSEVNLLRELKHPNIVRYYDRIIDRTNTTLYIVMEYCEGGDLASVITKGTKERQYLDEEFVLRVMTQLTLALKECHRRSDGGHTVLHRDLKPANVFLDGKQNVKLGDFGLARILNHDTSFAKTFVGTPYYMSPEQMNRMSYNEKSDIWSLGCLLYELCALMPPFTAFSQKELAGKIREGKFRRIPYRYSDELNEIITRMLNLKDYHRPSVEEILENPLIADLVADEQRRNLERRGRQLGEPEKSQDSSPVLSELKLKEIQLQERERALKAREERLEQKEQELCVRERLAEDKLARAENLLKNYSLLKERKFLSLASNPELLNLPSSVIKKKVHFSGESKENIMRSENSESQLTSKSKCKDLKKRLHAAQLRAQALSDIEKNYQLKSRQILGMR

[7] = biological target: Tyrosine-protein kinase Fgr (Homo sapiens) (UniProt P09769); experiment: Residual activity of FGR at 10 uM by microplate scintillation counting
Chain of Tyrosine-protein kinase Fgr (Homo sapiens) (P09769 2-529 limits assumed): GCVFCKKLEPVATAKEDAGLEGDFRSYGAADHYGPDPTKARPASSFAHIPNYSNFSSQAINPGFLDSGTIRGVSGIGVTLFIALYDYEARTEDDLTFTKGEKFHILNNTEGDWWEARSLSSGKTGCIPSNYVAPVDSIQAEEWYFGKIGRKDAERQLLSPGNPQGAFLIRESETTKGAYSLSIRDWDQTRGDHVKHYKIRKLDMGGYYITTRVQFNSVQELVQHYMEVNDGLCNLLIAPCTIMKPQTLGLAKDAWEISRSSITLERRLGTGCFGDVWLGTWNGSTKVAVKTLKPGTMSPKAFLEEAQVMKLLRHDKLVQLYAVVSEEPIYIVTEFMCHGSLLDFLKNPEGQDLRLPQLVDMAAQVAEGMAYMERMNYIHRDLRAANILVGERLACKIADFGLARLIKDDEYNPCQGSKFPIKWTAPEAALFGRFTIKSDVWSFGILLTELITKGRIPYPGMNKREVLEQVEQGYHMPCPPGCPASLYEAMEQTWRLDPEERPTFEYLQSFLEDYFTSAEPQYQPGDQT

Angiopoietin-1 receptor = Angiopoietin-1 receptor (Homo sapiens, UniProt Q02763); experiment: Residual activity of TIE2 at 0.1 uM by microplate scintillation counting
Chain of Angiopoietin-1 receptor (Q02763 whole entry): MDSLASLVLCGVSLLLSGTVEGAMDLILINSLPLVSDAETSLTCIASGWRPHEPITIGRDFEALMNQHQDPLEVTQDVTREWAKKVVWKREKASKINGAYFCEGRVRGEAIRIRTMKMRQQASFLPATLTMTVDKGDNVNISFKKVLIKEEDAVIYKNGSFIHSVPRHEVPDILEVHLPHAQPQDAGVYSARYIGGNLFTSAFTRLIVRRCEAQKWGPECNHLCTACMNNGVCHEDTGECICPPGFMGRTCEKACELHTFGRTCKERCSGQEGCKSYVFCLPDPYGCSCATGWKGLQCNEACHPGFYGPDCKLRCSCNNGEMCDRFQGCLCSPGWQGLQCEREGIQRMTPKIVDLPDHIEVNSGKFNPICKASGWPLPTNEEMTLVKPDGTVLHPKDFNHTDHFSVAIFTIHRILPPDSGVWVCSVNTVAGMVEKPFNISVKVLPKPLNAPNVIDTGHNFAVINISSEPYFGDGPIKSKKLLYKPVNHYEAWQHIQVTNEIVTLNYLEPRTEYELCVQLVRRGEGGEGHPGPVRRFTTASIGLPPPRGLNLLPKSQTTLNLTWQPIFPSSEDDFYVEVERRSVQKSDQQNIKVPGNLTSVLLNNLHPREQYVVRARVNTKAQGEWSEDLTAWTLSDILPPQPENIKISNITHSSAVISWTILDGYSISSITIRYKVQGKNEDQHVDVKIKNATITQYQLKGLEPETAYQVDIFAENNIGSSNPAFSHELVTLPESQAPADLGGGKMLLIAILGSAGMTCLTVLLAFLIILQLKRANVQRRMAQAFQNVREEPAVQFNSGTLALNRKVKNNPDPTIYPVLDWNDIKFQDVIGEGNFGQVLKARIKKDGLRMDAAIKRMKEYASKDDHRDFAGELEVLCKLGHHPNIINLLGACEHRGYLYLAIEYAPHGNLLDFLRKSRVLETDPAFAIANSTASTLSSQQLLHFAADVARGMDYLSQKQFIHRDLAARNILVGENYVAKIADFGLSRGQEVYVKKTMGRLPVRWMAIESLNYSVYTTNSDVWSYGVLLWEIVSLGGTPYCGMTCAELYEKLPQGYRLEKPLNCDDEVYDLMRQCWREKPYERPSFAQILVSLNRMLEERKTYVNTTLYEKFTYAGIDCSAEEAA

[8] = biological target: Serine/threonine-protein kinase pim-1 (Homo sapiens) (UniProt P11309); experiment: Residual activity of PIM1 at 0.1 uM by microplate scintillation counting
Chain of Serine/threonine-protein kinase pim-1 (Homo sapiens) (P11309 whole entry, looked up): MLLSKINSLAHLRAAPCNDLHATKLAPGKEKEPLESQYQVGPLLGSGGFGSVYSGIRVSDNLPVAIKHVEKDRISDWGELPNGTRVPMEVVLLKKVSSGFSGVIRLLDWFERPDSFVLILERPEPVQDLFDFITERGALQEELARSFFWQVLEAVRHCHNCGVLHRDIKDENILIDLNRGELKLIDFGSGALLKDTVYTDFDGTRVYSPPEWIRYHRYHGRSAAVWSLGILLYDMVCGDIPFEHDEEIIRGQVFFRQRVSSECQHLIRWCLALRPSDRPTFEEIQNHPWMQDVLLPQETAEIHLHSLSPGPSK

[9] = biological target: T3, Beta-adrenergic receptor kinase 1 (Homo sapiens) (UniProt P25098); experiment: Residual activity of GRK2 at 10 uM by microplate scintillation counting
T3 sequence (whole entry): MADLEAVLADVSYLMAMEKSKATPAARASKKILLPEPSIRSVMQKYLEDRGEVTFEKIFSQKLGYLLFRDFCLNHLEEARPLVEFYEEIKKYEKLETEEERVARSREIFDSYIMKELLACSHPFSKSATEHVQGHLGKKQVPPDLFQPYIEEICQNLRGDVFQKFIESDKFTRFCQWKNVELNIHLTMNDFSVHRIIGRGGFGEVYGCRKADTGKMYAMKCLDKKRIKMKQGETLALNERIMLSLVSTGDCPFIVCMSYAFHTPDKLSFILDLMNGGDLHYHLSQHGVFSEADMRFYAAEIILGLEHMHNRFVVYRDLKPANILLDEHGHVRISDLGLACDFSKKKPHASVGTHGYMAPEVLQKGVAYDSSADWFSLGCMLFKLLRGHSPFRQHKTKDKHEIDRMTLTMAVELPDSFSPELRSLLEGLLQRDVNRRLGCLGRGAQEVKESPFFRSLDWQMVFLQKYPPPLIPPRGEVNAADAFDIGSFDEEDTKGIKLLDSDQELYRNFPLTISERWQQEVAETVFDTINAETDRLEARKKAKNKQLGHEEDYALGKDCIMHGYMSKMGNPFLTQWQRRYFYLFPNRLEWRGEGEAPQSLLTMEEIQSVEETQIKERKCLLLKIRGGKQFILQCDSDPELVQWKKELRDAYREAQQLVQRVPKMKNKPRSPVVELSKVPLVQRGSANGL

Chain of Death-associated protein kinase 3 (Homo sapiens) (O43293 whole entry, looked up): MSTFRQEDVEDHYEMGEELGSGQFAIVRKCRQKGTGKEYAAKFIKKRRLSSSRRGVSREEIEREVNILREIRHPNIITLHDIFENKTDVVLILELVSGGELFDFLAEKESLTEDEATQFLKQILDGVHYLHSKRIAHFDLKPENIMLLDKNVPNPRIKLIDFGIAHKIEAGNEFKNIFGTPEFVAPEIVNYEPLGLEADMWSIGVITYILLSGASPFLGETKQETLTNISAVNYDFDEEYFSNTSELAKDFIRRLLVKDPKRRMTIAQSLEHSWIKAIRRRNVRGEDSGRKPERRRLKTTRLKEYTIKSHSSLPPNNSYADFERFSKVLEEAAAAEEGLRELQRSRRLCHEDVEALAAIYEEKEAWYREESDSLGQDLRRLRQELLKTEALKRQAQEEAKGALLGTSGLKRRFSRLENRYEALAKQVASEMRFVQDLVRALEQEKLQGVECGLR

Structure (SMILES)	residual activity [1]	residual activity [2]	residual activity [3]	residual activity [4]	residual activity [5]	residual activity [6]	residual activity [7]	residual activity (Angiopoietin-1 receptor)	residual activity [8]	residual activity [9]
COc1cc2c(Oc3ccc(-c4nc5ccccc5s4)cc3)ncnc2cc1OCCCN1CCN(C)CC1	96%	78%	108%	102%	91%	95%	82%	38%	100%	58%
COc1cc2c(Oc3ccc(-c4nc5ccccc5s4)cc3F)ncnc2cc1OCCCN1CCN(C)CC1	89%	87%	87%	94%	104%	90%	24%	53%	76%	53%
COc1cc2c(Oc3ccc(-c4nc5ccccc5s4)cc3)ncnc2cc1OCCCN1CCCC1	90%	90%	108%	94%	114%	94%	90%	50%	95%	73%
